Laboratory results published in patent US20030129672A1, “Method for identifying metalloenzyme inhibitors” (priority 2001, published 2003).
Where two headings read alike, the source gives them in different places.

How the values were obtained:
Type in all cases: biochemical
[1] = biological target: MMP-13CD (Homo sapiens, UniProt P45452); assay: Fluorigenic peptide-1 substrate based assay with and without acetohydroxamic acid, MMP-13CD; conditions: for IC50: MMP-13CD, FP1 substrate
Protocol: 50 mM HEPES buffer (pH 7.0)
2% DMSO (with or without inhibitor test compound)
Alternatively, an endpoint read can also be used to determine reaction velocity provided the initial fluorescence of the solution, as recorded before addition of enzyme, is subtracted from the final fluorescence of the reaction mixture. […] This determination was done for experiments done in the presence, and experiments done in the absence, of acetohydroxamic acid. Data were fit to the equation: […]

[2] = biological target: T1, MMP-2 (Homo sapiens, UniProt P08253); assay: Steady-state kinetics of the mechanism of inhibition of MMP-2 (FIG. 1); conditions: 6 concentrations from 0 nanomolar to 600 nanomolar, 1/V0 versus 1/[S]
T1 sequence (P08253 110-660): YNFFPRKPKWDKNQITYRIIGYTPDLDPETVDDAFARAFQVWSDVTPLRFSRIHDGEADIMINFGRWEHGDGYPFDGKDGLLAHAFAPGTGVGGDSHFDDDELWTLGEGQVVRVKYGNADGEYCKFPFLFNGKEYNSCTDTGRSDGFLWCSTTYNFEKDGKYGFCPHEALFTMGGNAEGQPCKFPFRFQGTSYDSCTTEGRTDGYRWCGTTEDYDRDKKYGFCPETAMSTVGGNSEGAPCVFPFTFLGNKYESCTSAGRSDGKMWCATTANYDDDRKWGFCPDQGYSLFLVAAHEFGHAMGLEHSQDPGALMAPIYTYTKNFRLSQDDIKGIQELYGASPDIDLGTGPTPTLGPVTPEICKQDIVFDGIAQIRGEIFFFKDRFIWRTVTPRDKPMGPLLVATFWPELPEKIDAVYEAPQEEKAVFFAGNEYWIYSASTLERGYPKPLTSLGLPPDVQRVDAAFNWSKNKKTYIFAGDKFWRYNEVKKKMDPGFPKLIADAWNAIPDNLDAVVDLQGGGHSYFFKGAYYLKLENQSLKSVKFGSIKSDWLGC
Source text: FIG. 1 is a graph that plots 1 over the initial velocity VO, which is the initial rate of product formation in a steady state kinetics assay, on the Y-axis versus 1 over concentration of substrate [S] used in the assay on the X-axis for inhibition of MMP-2 with N-[(3-phenylisoxazol-5-ylmethyl)-aminothiocarbonyl]-benzamide at 6 concentrations of from 0 nanomolar to 600 nanomolar.
In FIG. 1, 1 over the initial velocity VO, which is the initial rate of product formation in a steady state kinetics assay, is plotted on the Y-axis versus 1 over concentration of substrate [S] used in the assay on the X-axis for inhibition of MMP-2 with N-[(3-phenylisoxazol-5-ylmethyl)-aminothiocarbonyl]-benzamide at 6 concentrations of from 0 nanomolar to 600 nanomolar.

[3] = biological target: T1, MMP-2; assay: Fluorigenic peptide-1 substrate based assay with and without acetohydroxamic acid, MMP-2; conditions: MMP 2FL, FP1 substrate
[4] = biological target: MMP-9 (Homo sapiens, UniProt P14780); assay: Fluorigenic peptide-1 substrate based assay with and without acetohydroxamic acid, MMP-9; conditions: MMP 9FL, FP1 substrate
Sequence of MMP-9 (P14780 94-707, species assumed): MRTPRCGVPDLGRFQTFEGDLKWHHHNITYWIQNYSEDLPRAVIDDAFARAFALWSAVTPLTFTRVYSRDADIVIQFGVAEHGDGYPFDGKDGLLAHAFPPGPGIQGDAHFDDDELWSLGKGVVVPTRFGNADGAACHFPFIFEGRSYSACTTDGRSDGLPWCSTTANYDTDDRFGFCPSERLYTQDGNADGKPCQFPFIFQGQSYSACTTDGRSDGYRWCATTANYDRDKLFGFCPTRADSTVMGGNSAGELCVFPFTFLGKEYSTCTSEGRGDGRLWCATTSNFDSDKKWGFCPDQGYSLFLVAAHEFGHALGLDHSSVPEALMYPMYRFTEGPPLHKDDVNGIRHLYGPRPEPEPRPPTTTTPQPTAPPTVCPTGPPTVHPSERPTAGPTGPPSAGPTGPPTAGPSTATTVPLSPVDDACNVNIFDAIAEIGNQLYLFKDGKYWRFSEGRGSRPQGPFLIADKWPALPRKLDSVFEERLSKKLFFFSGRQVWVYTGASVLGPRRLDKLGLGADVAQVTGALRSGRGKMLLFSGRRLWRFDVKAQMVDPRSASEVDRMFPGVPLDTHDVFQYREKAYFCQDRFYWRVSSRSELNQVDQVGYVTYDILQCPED

[5] = 0 mM acetohydroxamic acid, read-out: Without AcNHOH IC50
[6] = 15 mM acetohydroxamic acid (1 Kd), read-out: With AcNHOH IC50
[7] = about 1 Kd of acetohydroxamic acid, read-out: With AcNHOH IC50
[8] = no acetohydroxamic acid, read-out: Without AcNHOH IC50

IC50 [1, 5] [µM] | IC50 [1, 6] [µM] | Compound | further results
34 | 16 | Nc1ccc(-c2ccc(S(N)(=O)=O)cc2)cc1 [Entry 1] | 
84 | 3.1 | NS(=O)(=O)c1ccc(-c2ccc([N+](=O)O)cc2)cc1 [Entry 2] | 
27 | 11 | COc1ccc(C(=O)NCc2cccnc2)cc1C(=O)NCc1cccnc1 [Entry 7] | 

More lines, now with the values behind:

Compound | IC50 [1, 5] [µM] | IC50 [1, 6] [µM] | further results
COc1ccc(NC(=O)Nc2ccc3nc(C)cc(N)c3c2)cc1 [Entry 3] | 126 | 71 | 
Cc1cc(O)nc(SCc2ccc(Cl)cc2)n1 [Entry 4] | 64 | 4.7 | 
Cc1c(-c2ccc(-n3ccnc3)cc2)[nH][nH]c1=O [Entry 5] | 9.5 | 11 | 
CCOC(=O)/C=C/c1ccc(-n2ccnc2)cc1 [Entry 6] | 17 | 14 | 
O=C(NC(=S)NCc1cc(-c2ccccc2)no1)c1ccccc1 [N-[(3-phenylisoxazol-5-ylmethyl)-aminothiocarbonyl]-benzamide] |  |  | Mechanism of inhibition of MMP-2 by steady-state kinetics [2]: uncompetitive inhibitor; IC50 [3, 7]: 0.09 µM; IC50 [3, 8]: 0.9 µM; IC50 [4, 7]: 1.2 µM; IC50 [4, 8]: 3.1 µM
CC(=O)NO [acetohydroxamic acid, reference compound] |  |  | Kd [1]: 15000 µM
